SMILES strings stand for the structures.

One assay concerns weeds and grass. Kind of assay: Time to visual phytotoxic effect after application to weeds (general statement). In kind it is in vivo. Conditions: without ammonium pelargonate; 'or longer'. From the text: As an example, weed and grass necrosis may approach 100% within 24 hrs. with glyphosate in combination with ammonium pelargonate, compared to 3-4 days or longer without the ammonium pelargonate.
Unwanted vegetation may be killed by applying to the locus of the vegetation the herbicidal composition of the invention. The herbicidal composition of the invention may be contacted with the unwanted vegetation by spraying or otherwise distributing the composition onto the foliage in accordance with the manufacturers' directions of the post-emergent herbicide [to which has been added the compound of formula (I)]. […] Most importantly, the invention dramatically reduces the kill time. Leaves of vegetation sprayed with herbicidal compositions of the invention usually start to shrivel or turn brown within hours of a single application. Necrosis is evident, usually in 24 hours. Typically unwanted vegetation is dead in less than 24 hours compared to 3 to 4 days when the post-emergent is solely used. Since use of the compound of formula (I) decreases the amount of post-emergent herbicide required, the invention dramatically reduces costs.

In the next assay the test system is fescue. Description: Field study on fescue suppression. Particulars: one week after spraying; 0.2% ammonium pelargonate alone; 15 gpa. In kind it is in vivo. From the text: A field study was made on fescue suppression (fescue thatch, 9-10 in. height, blade length 10-16 in.) using a 0.2% by weight solution of ammonium pelargonate alone, glyphosate ammonium salt alone (ROUNDUP DF®) at application rates of both 0.21 lb. active ingredient/acre (ai/A) and 0.42 lb. ai/A and a combination of 0.2% ammonium pelargonate with the same rates of ROUNDUP DF. The spray rate was 15 gal./acre (gpa) in all cases. One week after spraying, the following results were obtained: […]

For `O=C(O)CNCP(=O)(O)O` [glyphosate], the “time until weed and grass necrosis may approach 100%” value in the assay on weeds and grass is 3 to 4 days.
On to `CCCCCCCCC(=O)O.N` [Ammonium Pelargonate, ammonium pelargonate], for which the necrosis in the assay with fescue is 0%.

Values taken from patent US6503869B1, “Enhanced post-emergent herbicidal compositions containing ammonium salts and methods of using the same” (Falcon Lab LLC, priority 2000, dated 2003).
